In patent US8815590B2, “Composition and method for differentiation of human embryonic stem cells” (Stem Cells for Safer Medicines Limited, priority 2009, dated 2014):

Legend:
Human ESCs [SHEF3] [1] = assay: Flow cytometry of pluripotency surface markers Tra-1-60 and SSEA4 in treated human ESCs; format: cell-based
Procedure: (A) Images show typical colonies formed following the indicated treatments. The scale bars represent 1 mm. (B) Histogram plots of ESCs analysed by flow cytometry following immunostaining with antibodies against the pluripotency markers Tra-1-60 or SSEA4. (C) RNA was extracted from the cells and RT-PCR analyses performed using primers specific to the pluripotency genes OCT4 and NANOG and to the house-keeping gene β-ACTIN. (D) Western blot analysis was performed on protein extracted from the cells and immunoblotted with antibodies specific to Oct4. Blots were stripped and reprobed with anti-Gapdh antibodies to assess equal loading. […] SHEF3 cells were treated with the indicated concentration of 1O for 7 days. Images show typical colony morphology. (F) Histogram plots of ESCs analysed by flow cytometry following staining with Tra-1-60 and SSEA4 antibodies. Analysis of percent positive cells and mean fluorescent intensity are indicated on the plots. (G) RT PCR analysis for the expression of OCT4 and NANOG. Bands for each of the genes were from the same gel with intervening samples removed. (H) Western blot analysis of OCT4 protein expression. Proteins bands were from the same immunoblot with intervening samples removed.
SHEF1 and SHEF3 human ESCs were obtained from the UKSCB and cultured as outlined in their protocols. Briefly, ESCs were maintained on mitomycin C-inactivated mouse embryonic fibroblast (MEF) feeder layers in KnockOut Dulbecco's modified Eagle's medium (KO DMEM) (Invitrogen) supplemented with 20% (vol/vol) KO serum replacement (KOSR; Invitrogen), 1 mM non-essential amino acids (NEAA; Invitrogen), 1 mM glutamine (Invitrogen), 0.1 mM 2-mercaptoethanol (BioRad), penicillin/streptomycin, and 4 ng/ml recombinant human FGF2 (Peprotech). Cultures were passage using 1 mg/ml collagenase at a ratio of 1:8 to 1:12 every 7 days. Cultures were transferred to a feeder-free, chemically defined culture system on ESC-qualified Matrigel® (BD) coated plates in mTeSR1® (Stem Cell Technologies) media according to Stem Cell Technologies' protocol.
ESCs were trypsinised (0.05% Trypsin-EDTA) for 10 minutes at 37° C. and resuspended in PBS containing 2% (v/v) FBS (FBS/PBS). […] Cells were washed and stained with secondary fluorescein isothiocyanate (FITC)-conjugated antibodies (SIGMA) for a further 30 minutes, if required. Flow cytometry was performed using a FACSCanto cytometer (Becton Dickenson) and the data were analysed with FACSDiva software. Dead cells were excluded for analyses based on forward and side scatter parameters.

Human ESCs [SHEF3] [2] = assay: Differentiation towards definitive endoderm: immunostaining and RT-PCR of endodermal markers; format: cell-based; settings: 2 μM
Procedure: Human ESCs [SHEF3] were maintained feeder-free on Matrigel® in chemically defined mTeSR1® media and treated with 2 μM 1M for the days indicated. (A) Expression of the endodermal markers FoxA2, Sox17 and HNF4α were analysed by immunofluorescence. Treatment with compound 1M led to expression of all markers after 7 days treatment. Scale bar represents 50 μm. (B) ESCs were harvested on day 7 following treatment with 1M for the indicated days. RNA was extracted and RT-PCR analyses performed using primers selective for the genes indicated. […] (C) BIO induces differentiation towards the DE. SHEF3 ESCs were treated with 2 μM BIO for the times indicated and immunostained with antibodies towards the endodermal markers FOXA2, SOX17 and HNF4α. (D) Compound 1L also induces differentiation towards the DE. SHEF1 ESCs were treated with 2 μM 1L for the times indicated and immunostained with antibodies towards the endodermal markers FOXA2 and HNF4α.
ESCs were cultured feeder-free on Matrigel®-coated plates in mTeSR1® media, supplemented with 2 μM compound 1M for 7 days with the media being refreshed every-other day. Definitive endoderm cultures were passaged with collagenase (1 mg/ml) and plated at a ratio of 1:10 on Matrigel® in KO DMEM supplemented with glutamine, penicillin/streptomycin, NEAA, 2% (v/v) KOSR, 10 ng/ml HGF (Peprotech) and 10 ng/ml FGF4 and cultured for a further 7 days with the media being refreshed every-other day. To allow for maturation of the HLCs, 10 ng/ml oncostatin M (Peprotech) and 10^−7 dexamethasone (SIGMA) were added to the above media and the cells were cultured for an additional 7 days with fresh media every-other day.
Total RNA was isolated and purified using TRIzol Reagent (Invitrogen), following the manufacturer's instructions. All RNA samples were treated with DNase I (Ambion) before cDNA synthesis to eliminate any contaminating genomic DNA. RNA (1 μg) was reverse transcribed into cDNA using Oligo(dT)15 (Promega) and SuperScript II (Invitrogen). Gene-specific PCR was carried out using primers and annealing temperatures outlined in Table 2.
ESCs were cultured on Matrigel®-coated lummox (Greiner Bio One) trays and fixed with 4% paraformaldehyde (PFA) for 20 minutes at room temperature. Cells were permeabilised in PBST (with 0.1% Triton X-100) and blocked in 10% blocking reagent (Roche) before incubating with primary antibodies in 2% blocking reagent overnight at 4° C. After washing in PBS, cells were incubated with FITC-conjugated secondary antibodies (Vector Labs) for 3 hours at room temperature. After further washing, the cells were stained with 4,6-diamidino-2-phenylindole (DAPI) (SIGMA), washed again and mounted in MOWIOL. […]

[3] = MEF culture, concentration 0.5, 7 days
[4] = MEF culture, concentration 2, 7 days
[5] = mTeSR1, concentration 0.5, 7 days
[6] = mTeSR1, concentration 2, 7 days

Structure (SMILES): O=C1NC(=O)C2=C1c1cn(c3ccccc13)CCOCCOCCOCCOCCn1cc2c2ccccc21 [1M]
- Expression of pluripotency markers Tra-1-60 and SSEA4 by flow cytometry (in words) (Human ESCs [SHEF3] [1]; 7 days treatment): dramatic decrease in expression
- Tra1-60 % pos (Human ESCs [SHEF3] [1]; MEF culture, concentration 0.5 (unit not given), 7 days): 82.1%
- SSEA4 % pos (Human ESCs [SHEF3] [1]; [3]): 90.4%
- SSEA4 mean (mean fluorescence intensity) (Human ESCs [SHEF3] [1]; [3]): 5805
- Tra1-60 mean (mean fluorescence intensity) (Human ESCs [SHEF3] [1]; [3]): 9403
- Tra1-60 % pos (Human ESCs [SHEF3] [1]; MEF culture, concentration 2 (unit not given), 7 days): 18.9%
- SSEA4 % pos (Human ESCs [SHEF3] [1]; [4]): 72.9%
- SSEA4 mean (mean fluorescence intensity) (Human ESCs [SHEF3] [1]; [4]): 1656
- Tra1-60 mean (mean fluorescence intensity) (Human ESCs [SHEF3] [1]; [4]): 1092
- Tra1-60 % pos (Human ESCs [SHEF3] [1]; mTeSR1 (feeder-free, Matrigel), concentration 0.5, 7 days): 85.9%
- Tra1-60 % pos (Human ESCs [SHEF3] [1]; mTeSR1 (feeder-free, Matrigel), concentration 2, 7 days): 25.6%
- SSEA4 % pos (Human ESCs [SHEF3] [1]; [5]): 88.6%
- SSEA4 mean (mean fluorescence intensity) (Human ESCs [SHEF3] [1]; [5]): 7578
- Tra1-60 mean (mean fluorescence intensity) (Human ESCs [SHEF3] [1]; [5]): 11955
- SSEA4 % pos (Human ESCs [SHEF3] [1]; [6]): 52.9%
- SSEA4 mean (mean fluorescence intensity) (Human ESCs [SHEF3] [1]; [6]): 465
- Tra1-60 mean (mean fluorescence intensity) (Human ESCs [SHEF3] [1]; [6]): 312
- Differentiation towards the DE (immunostaining FOXA2, SOX17, HNF4α) (Human ESCs [SHEF3] [2]; feeder-free on Matrigel in mTeSR1, up to 7 days): differentiating towards the DE in a time dependent manner
- Expression of HNF4α and AFP (early hepatic lineage) (Human ESCs [SHEF3] [2]; following 7 days treatment): expression of HNF4α and α-fetoprotein (AFP) was observed
